Source: patent US7544468B2, “Simultaneous collection of DNA and non-nucleic analytes” (Orasure Technologies, Inc., priority 1997, dated 2009)
Counter-ions that a name gives are not always drawn. Like-named read-outs stand apart in the source and are kept apart here.

Tests used:
[1] = Single dose study: intravenous cocaine, detection in oral fluid and urine by STC assay and GC/MS; type: in vivo, human
Protocol: A total of 10 volunteers received 10 or 25 mg of intravenous cocaine in a controlled environment. Oral fluid and urine specimens were collected over 0-130 hours after dose. Oral fluid specimens (400 µL) were added to the collection pad and diluted into the EPISCREEN™ Control Matrix. Samples were then tested using the STC assay and GC/MS. The results were platted over time for each patient. The oral fluid and urine results were compared using similar points on the curve. For all volunteers, regardless of the dose, the cocaine concentrations in oral fluid were detectable 5 minutes after dosing. For the subject who received 10 mg, oral fluid cocaine levels were no longer detectable after 25 minutes. For the remaining nine subjects who received 25 mg intravenous cocaine, drug levels in oral fluids were detectable after dosing for up to 3-6 hours. The length of time detectable drug concentrations were present in urine varied greatly. […] This variability could be attributed to a number of factors, including the volume of urine collected and the sensitivity of the cutoff used. In general, however, positive results were obtained in the subjects for up to 58 hours after dosing.

[2] = cited from earlier work
[3] = cited from earlier work; remark: listed apart in the source

COC(=O)[C@H]1[C@@H](OC(=O)c2ccccc2)C[C@@H]2CC[C@H]1N2C [Cocaine, benzyolmethylecgonine]
time after dosing at which cocaine concentrations in oral fluid were detectable ([1]; all volunteers, 10 or 25 mg intravenous): 5 min
time drug levels in oral fluids were detectable after dosing ([1]; nine subjects, 25 mg intravenous): 3 to 6 h
time after which oral fluid cocaine levels were no longer detectable ([1]; subject who received 10 mg intravenous): 25 min

CN[C@@H](C)Cc1ccccc1 [Methamphetamine, methylamphetamine hydrochloride]
found unchanged in urine ([2]; acid urine): up to 76%
found unchanged in urine ([2]; alkaline urine): 2%
excreted in the urine unchanged ([2]; normal conditions): up to 43%
time detected in oral fluid ([2]; oral fluid, depends on dose and rate of saliva flow): ≤ 50 h
time detection in urine is successful following use ([2]; urine): 24 to 48 h

CCCCCc1cc(O)c2c(c1)OC(C)(C)[C@@H]1CCC(C)=C[C@@H]21 [THC, Tetrahydrocannabinol]
persistence in saliva ([3]; saliva, after use, depends on pH and rate of saliva flow): ≤ 14 h
persistence in urine ([3]; urine, depending upon the frequency of use): up to 30 days
